Earlier results, collected in patent publication US20180371365A1, “FABRIC SOFTENER COMPOSITIONS” (The Procter & Gamble Company, priority 2017, published 2018).

Details: acidifying agents for compositions having pH 3.5 or greater

SMILES | pKa
CCCCCCC(=O)O [heptanoic acid] | 5.1
OCl [hypochlorous acid] | 7.0
c1c[nH]cn1 [imidazole] | 7.0
CCCCCCCCC(=O)O [nonanoic acid] | 5.2
O=C(O)C=Cc1ccc(O)cc1 [p-coumaric acid, 4-hydroxy cinnamic acid] | 4.6
C=CCCCCCCCCC(=O)O [undecylenic acid] | 5.0
